From US12390470B2, “1-methylxanthine-based bioactive composition and method of use thereof” (Ingenious Ingredients, LP, priority 2021, dated 2025)
Where “and” joins values, the source holds several entries; their conditions need not be identical. Equal values may be shown once.

Columns and labels:
Format in all cases: in vivo
male Swiss Albino mice = assay: Forelimb grip strength test
Procedure: (§1) Twenty-four 8-week-old male Swiss Albino mice were housed in an animal room at a constant temperature (22±3° C.) and humidity (30%-70%) under a 12:12 h light-dark cycle with standard laboratory diet (Purina 5L79, Rat and Mouse 18% protein; PMI Nutrition International, Brentwood, MO, USA). Distilled water was provided ad libitum. All animal experiments were reviewed and approved by the Institutional Animal Ethical Committee (IAEC) of Radiant Research Services Pvt. Ltd (Bangalore, India). All research was conducted in accordance with the guidelines of the committee for the purpose of control and supervision of experiments on animals.
After one week of acclimation, the animals were randomly divided by body weight into three groups (n=8 per group in each test) for oral treatment once a day, at approximately same time each day (±1 hour), for 28 consecutive days: (1) vehicle control or (2) 1-methylxanthine or (3) 1-methylxanthine plus paraxanthine. The dose administered to the mice was calculated using US Food and Drug Administration for human equivalence doses (HED), assuming a human weight of 60 kg. The following HED was used in this study: 100 mg 1-methylxanthine (Ingenious Ingredients, L.P Lewisville, TX, USA; mouse dose: 20.5 mg/kg bw/day), or 100 mg 1-methylxanthine (Ingenious Ingredients, L.P Lewisville, TX, USA; mouse dose: 20.5 mg/kg bw/day) plus 100 mg paraxanthine (ENFINITY™, Ingenious Ingredients, L.P Lewisville, TX, USA; mouse dose: 20.5 mg/kg bw/day). 0.5% Carboxy Methyl Cellulose sodium was used as vehicle and the test item formulations were prepared daily. […] Food intake was monitored daily while water intake was ad libitum. BW was recorded weekly. […]
The forelimb grip strength was measured on day 0 and day 28 by using a stainless-steel grill to assess muscle strength (Orchid Scientific & Innovative India Pvt Ltd, India). Grip strength was measured one hour after treatment. […] Each animal performed three independent trials and the mean of the three trials was calculated and recorded.

[1] = Organ weight (liver, heart), Example 1; details: mice, 28 days
Procedure: as §1
After one week of acclimation, the animals were randomly divided by body weight into three groups (n=8 per group in each test) for oral treatment once a day, at approximately same time each day (±1 hour), for 28 consecutive days: (1) vehicle control or (2) 1-methylxanthine or (3) 1-methylxanthine plus paraxanthine. The dose administered to the mice was calculated using US Food and Drug Administration for human equivalence doses (HED), assuming a human weight of 60 kg. […] Food intake was monitored daily while water intake was ad libitum. BW was recorded weekly. […]

Swiss Albino Wistar rats = assay: Morris water maze test in young and old rats; details: HED 100 mg 1-MX (+25 mg PX)
Procedure: as §1, with “young (6-8 Week) and twenty-four old (14-16 Months)” for “8-week-old male”, “Wistar rats” for “mice”
(§2) After one week of acclimation, the animals were randomly divided by body weight and age into six groups (n=8 per group in each test) for oral treatment once a day, at approximately same time each day (±1 hour), for 10 consecutive days: (1) vehicle control or (2) 1-methylxanthine or (3) 1-methylxanthine plus paraxanthine. The dose administered to the rat was calculated using US Food and Drug Administration for human equivalence doses (HED), assuming a human weight of 60 kg. […] Food intake was monitored daily while water intake was ad libitum. […] Body weight was recorded weekly. […]

dopamine = assay: Dopamine level in young and old rats; details: old rats
Procedure: as §1, with “young (6-8 Week) and twenty-four old (14-16 Months)” for “8-week-old male”, “Wistar rats” for “mice”
as §2

glutathione = assay: Glutathione level in young and old rats
Procedure: as §1, with “young (6-8 Week) and twenty-four old (14-16 Months)” for “8-week-old male”, “Wistar rats” for “mice”
as §2

For `Cn1c(=O)[nH]c2nc[nH]c2c1=O` [1-methylxanthine, 1-Methyl-3H-purine-2,6-dione], the Forelimb grip strength (male Swiss Albino mice; baseline) was 91.1±1.3 gf, the “changes in strength greater than control” value (male Swiss Albino mice; baseline to day 28) was 15.9% and the Forelimb grip strength (male Swiss Albino mice; day 28, oral 20.5 mg/kg bw/day each, 28 days, with exercise training) was 126.9±6.0 gf. The Heart weight [1] was 189.13 ± 0.64 mg, the Liver weight [1] was 1847.25 ± 47.92 mg and the “Escape latency, Morris water maze” value (Swiss Albino Wistar rats; old rats) was 41.71 ± 1.81 s. For the same compound, the “Escape latency, Morris water maze” value (Swiss Albino Wistar rats; young rats) was 32.18 ± 1.10 s, the dopamine level (dopamine) was 474.42 ± 13.49 ng/L and the glutathione levels (glutathione; old rats) was 25.29 ± 0.93 µg/mL. The glutathione levels (glutathione; young rats, listed as 1-MX) was 28.57 ± 1.36 µg/mL and 28.57 ± 1.65 µg/mL.
